How the values were obtained:
fall panicum = assay: Test C postemergence fall panicum; format: in vivo, Panicum dichotomiflorum; conditions: 0 to 100 scale, 0 no effect, 100 complete control
Outline: (§1)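 Compounds in a non-phytotoxic solvent with surfactant were sprayed postemergence on greenhouse-grown plants in 60:40 sandy loam/potting mix. After about 14 to 21 days, visual ratings against untreated controls on a 0 (no effect) to 100 (complete control) scale.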

ivyleaf morningglory = assay: Test C postemergence ivyleaf morningglory; format: in vivo, Ipomoea hederacea; conditions: 0 to 100 scale, 0 no effect, 100 complete control
Outline: as §1

Green foxtail = assay: Test D green foxtail; format: in vivo; conditions: Preemergence, 0 to 100 scale
Outline: (§2)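 Values are visual plant-response ratings (0 no injury, 100 complete control) recorded 14 to 21 days after herbicide treatment, using a non-phytotoxic solvent mixture containing surfactant. Preemergence applications went to the surface of pots holding freshly sown seed in sandy loam.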

lambsquarters = assay: Test C postemergence lambsquarters; format: in vivo, Chenopodium album; conditions: 0 to 100 scale, 0 no effect, 100 complete control
Outline: as §1

purple nutsedge = assay: Test C postemergence purple nutsedge; format: in vivo, Cyperus rotundus; conditions: 0 to 100 scale, 0 no effect, 100 complete control
Outline: as §1

surinam grass = assay: Test C postemergence surinam grass; format: in vivo, Brachiaria decumbens; conditions: 0 to 100 scale, 0 no effect, 100 complete control
Outline: as §1

cotton = assay: Test C postemergence cotton; format: in vivo, Gossypium hirsutum; conditions: 0 to 100 scale, 0 no effect, 100 complete control
Outline: as §1

barnyardgrass = assay: Test C postemergence barnyardgrass; format: in vivo, Echinochloa crus-galli; conditions: 0 to 100 scale, 0 no effect, 100 complete control
Outline: as §1

cocklebur = assay: Test C postemergence cocklebur; format: in vivo, Xanthium strumarium; conditions: 0 to 100 scale, 0 no effect, 100 complete control
Outline: as §1

eastern black nightshade = assay: Test C postemergence eastern black nightshade; format: in vivo, Solanum ptycanthum; conditions: 0 to 100 scale, 0 no effect, 100 complete control
Outline: as §1

large crabgrass = assay: Test C postemergence large crabgrass; format: in vivo, Digitaria sanguinalis; conditions: 0 to 100 scale, 0 no effect, 100 complete control
Outline: as §1

johnsongrass = assay: Test C postemergence johnsongrass; format: in vivo, Sorghum halepense; conditions: 0 to 100 scale, 0 no effect, 100 complete control
Outline: as §1

wild poinsettia = assay: Test C postemergence wild poinsettia; format: in vivo, Euphorbia heterophylla; conditions: 0 to 100 scale, 0 no effect, 100 complete control
Outline: as §1

giant foxtail = assay: Test C postemergence giant foxtail; format: in vivo, Setaria faberii; conditions: 0 to 100 scale, 0 no effect, 100 complete control
Outline: as §1

arrowleaf sida = assay: Test C postemergence arrowleaf sida; format: in vivo, Sida rhombifolia; conditions: 0 to 100 scale, 0 no effect, 100 complete control
Outline: as §1

velvetleaf = assay: Test C postemergence velvetleaf; format: in vivo, Abutilon theophrasti; conditions: 0 to 100 scale, 0 no effect, 100 complete control
Outline: as §1

sourgrass = assay: Test D sourgrass; format: in vivo, Trichachne insularis; conditions: Preemergence, 0 to 100 scale
Outline: as §2

CC(C)N(C(=O)n1oc(=O)n(C(C)C)c1=O)c1ccc(F)cc1F [Compound 109]
Plant response rating Fall panicum (fall panicum; Rate 140 g/ha): 50 | Plant response rating Fall panicum (fall panicum; Rate 280 g/ha): 50 | Plant response rating Fall panicum (fall panicum; Rate 560 g/ha): 80 | Plant response rating Fall panicum (fall panicum; Rate 1120 g/ha): 95 | Plant response rating I. morningglory (ivyleaf morningglory; Rate 140 g/ha): 0 | Plant response rating I. morningglory (ivyleaf morningglory; Rate 280 g/ha): 50 | Plant response rating I. morningglory (ivyleaf morningglory; Rate 560 g/ha): 50 | Plant response rating I. morningglory (ivyleaf morningglory; Rate 1120 g/ha): 70 | Plant response rating, Green foxtail (Green foxtail; Rate 250 g/ha): 100 | Plant response rating, Green foxtail (Green foxtail; Rate 500 g/ha): 100 | Plant response rating Lambsquarters (lambsquarters; Rate 140 g/ha): 10 | Plant response rating Lambsquarters (lambsquarters; Rate 280 g/ha): 10 | Plant response rating Lambsquarters (lambsquarters; Rate 560 g/ha): 30 | Plant response rating Lambsquarters (lambsquarters; Rate 1120 g/ha): 70 | Plant response rating, Purple nutsedge (purple nutsedge; Rate 140 g/ha): 0 | Plant response rating, Purple nutsedge (purple nutsedge; Rate 280 g/ha): 0 | Plant response rating, Purple nutsedge (purple nutsedge; Rate 560 g/ha): 0 | Plant response rating, Purple nutsedge (purple nutsedge; Rate 1120 g/ha): 0 | Plant response rating Surinam grass (surinam grass; Rate 140 g/ha): 0 | Plant response rating Surinam grass (surinam grass; Rate 280 g/ha): 5 | Plant response rating Surinam grass (surinam grass; Rate 560 g/ha): 50 | Plant response rating Surinam grass (surinam grass; Rate 1120 g/ha): 95 | Plant response rating Cotton (cotton; Rate 140 g/ha): 10 | Plant response rating Cotton (cotton; Rate 280 g/ha): 50 | Plant response rating Cotton (cotton; Rate 560 g/ha): 70 | Plant response rating Cotton (cotton; Rate 1120 g/ha): 70 | Plant response rating, Barnyardgrass (barnyardgrass; Rate 140 g/ha): 60 | Plant response rating, Barnyardgrass (barnyardgrass; Rate 280 g/ha): 85 | Plant response rating, Barnyardgrass (barnyardgrass; Rate 560 g/ha): 85 | Plant response rating, Barnyardgrass (barnyardgrass; Rate 1120 g/ha): 95 | Plant response rating, Cocklebur (cocklebur; Rate 140 g/ha): 30 | Plant response rating, Cocklebur (cocklebur; Rate 280 g/ha): 30 | Plant response rating, Cocklebur (cocklebur; Rate 560 g/ha): 60 | Plant response rating E. blacknightsh (eastern black nightshade; Rate 140 g/ha): 50 | Plant response rating E. blacknightsh (eastern black nightshade; Rate 280 g/ha): 80 | Plant response rating E. blacknightsh (eastern black nightshade; Rate 1120 g/ha): 95 | Plant response rating Large crabgrass (large crabgrass; Rate 140 g/ha): 10 | Plant response rating Large crabgrass (large crabgrass; Rate 280 g/ha): 60 | Plant response rating Large crabgrass (large crabgrass; Rate 560 g/ha): 90 | Plant response rating Large crabgrass (large crabgrass; Rate 1120 g/ha): 90 | Plant response rating Johnsongrass (johnsongrass; Rate 140 g/ha): 0 | Plant response rating Johnsongrass (johnsongrass; Rate 280 g/ha): 10 | Plant response rating Johnsongrass (johnsongrass; Rate 560 g/ha): 60 | Plant response rating Johnsongrass (johnsongrass; Rate 1120 g/ha): 95 | Plant response rating Wild poinsettia (wild poinsettia; Rate 140 g/ha): 10 | Plant response rating Wild poinsettia (wild poinsettia; Rate 280 g/ha): 30 | Plant response rating Wild poinsettia (wild poinsettia; Rate 560 g/ha): 50 | Plant response rating Wild poinsettia (wild poinsettia; Rate 1120 g/ha): 90 | Plant response rating, Giant foxtail (giant foxtail; Rate 140 g/ha): 50 | Plant response rating, Giant foxtail (giant foxtail; Rate 280 g/ha): 80 | Plant response rating, Giant foxtail (giant foxtail; Rate 560 g/ha): 80 | Plant response rating, Giant foxtail (giant foxtail; Rate 1120 g/ha): 85 | Plant response rating Arrowleaf sida (arrowleaf sida; Rate 140 g/ha): 60 | Plant response rating Arrowleaf sida (arrowleaf sida; Rate 280 g/ha): 70 | Plant response rating Arrowleaf sida (arrowleaf sida; Rate 560 g/ha): 85 | Plant response rating Arrowleaf sida (arrowleaf sida; Rate 1120 g/ha): 95 | Plant response rating, Velvetleaf (velvetleaf; Rate 140 g/ha): 10 | Plant response rating, Velvetleaf (velvetleaf; Rate 280 g/ha): 20 | Plant response rating, Velvetleaf (velvetleaf; Rate 560 g/ha): 50 | Plant response rating, Velvetleaf (velvetleaf; Rate 1120 g/ha): 75

C=CCn1c(=O)on(C(=O)N(c2ccc(F)cc2)C(C)C)c1=O [Compound 146]
Plant response rating Fall panicum (fall panicum; Rate 140 g/ha): 50 | Plant response rating Fall panicum (fall panicum; Rate 280 g/ha): 60 | Plant response rating Fall panicum (fall panicum; Rate 560 g/ha): 90 | Plant response rating Fall panicum (fall panicum; Rate 1120 g/ha): 90 | Plant response rating I. morningglory (ivyleaf morningglory; Rate 140 g/ha): 0 | Plant response rating I. morningglory (ivyleaf morningglory; Rate 280 g/ha): 20 | Plant response rating I. morningglory (ivyleaf morningglory; Rate 560 g/ha): 20 | Plant response rating I. morningglory (ivyleaf morningglory; Rate 1120 g/ha): 50 | Plant response rating, Green foxtail (Green foxtail; Rate 250 g/ha): 100 | Plant response rating, Green foxtail (Green foxtail; Rate 500 g/ha): 100 | Plant response rating Lambsquarters (lambsquarters; Rate 140 g/ha): 0 | Plant response rating Lambsquarters (lambsquarters; Rate 280 g/ha): 5 | Plant response rating Lambsquarters (lambsquarters; Rate 560 g/ha): 10 | Plant response rating Lambsquarters (lambsquarters; Rate 1120 g/ha): 50 | Plant response rating, Purple nutsedge (purple nutsedge; Rate 140 g/ha): 0 | Plant response rating, Purple nutsedge (purple nutsedge; Rate 280 g/ha): 0 | Plant response rating, Purple nutsedge (purple nutsedge; Rate 560 g/ha): 0 | Plant response rating, Purple nutsedge (purple nutsedge; Rate 1120 g/ha): 0 | Plant response rating Surinam grass (surinam grass; Rate 140 g/ha): 0 | Plant response rating Surinam grass (surinam grass; Rate 280 g/ha): 5 | Plant response rating Surinam grass (surinam grass; Rate 560 g/ha): 50 | Plant response rating Surinam grass (surinam grass; Rate 1120 g/ha): 95 | Plant response rating Cotton (cotton; Rate 140 g/ha): 40 | Plant response rating Cotton (cotton; Rate 280 g/ha): 65 | Plant response rating Cotton (cotton; Rate 560 g/ha): 65 | Plant response rating Cotton (cotton; Rate 1120 g/ha): 70 | Plant response rating, Barnyardgrass (barnyardgrass; Rate 140 g/ha): 60 | Plant response rating, Barnyardgrass (barnyardgrass; Rate 280 g/ha): 80 | Plant response rating, Barnyardgrass (barnyardgrass; Rate 560 g/ha): 85 | Plant response rating, Barnyardgrass (barnyardgrass; Rate 1120 g/ha): 95 | Plant response rating, Cocklebur (cocklebur; Rate 140 g/ha): 40 | Plant response rating, Cocklebur (cocklebur; Rate 280 g/ha): 40 | Plant response rating, Cocklebur (cocklebur; Rate 560 g/ha): 70 | Plant response rating, Cocklebur (cocklebur; Rate 1120 g/ha): 70 | Plant response rating E. blacknightsh (eastern black nightshade; Rate 140 g/ha): 0 | Plant response rating E. blacknightsh (eastern black nightshade; Rate 280 g/ha): 30 | Plant response rating E. blacknightsh (eastern black nightshade; Rate 560 g/ha): 85 | Plant response rating E. blacknightsh (eastern black nightshade; Rate 1120 g/ha): 85 | Plant response rating Large crabgrass (large crabgrass; Rate 140 g/ha): 0 | Plant response rating Large crabgrass (large crabgrass; Rate 280 g/ha): 60 | Plant response rating Large crabgrass (large crabgrass; Rate 560 g/ha): 60 | Plant response rating Large crabgrass (large crabgrass; Rate 1120 g/ha): 80 | Plant response rating, Sourgrass (sourgrass; Rate 16 g/ha, 0 no injury, 100 complete control): 0 | Plant response rating, Sourgrass (sourgrass; Rate 32 g/ha, 0 no injury, 100 complete control): 98 | Sourgrass plant response rating (sourgrass; Rate 64 g/ha, 0 no injury, 100 complete control): 100 | Sourgrass plant response rating (sourgrass; Rate 125 g/ha, 0 no injury, 100 complete control): 100 | Plant response rating, Sourgrass (sourgrass; Rate 250 g/ha): 100 | Plant response rating, Sourgrass (sourgrass; Rate 500 g/ha): 100 | Plant response rating Johnsongrass (johnsongrass; Rate 140 g/ha): 0 | Plant response rating Johnsongrass (johnsongrass; Rate 280 g/ha): 30 | Plant response rating Johnsongrass (johnsongrass; Rate 560 g/ha): 60 | Plant response rating Johnsongrass (johnsongrass; Rate 1120 g/ha): 90 | Plant response rating Wild poinsettia (wild poinsettia; Rate 140 g/ha): 0 | Plant response rating Wild poinsettia (wild poinsettia; Rate 280 g/ha): 40 | Plant response rating Wild poinsettia (wild poinsettia; Rate 560 g/ha): 50 | Plant response rating Wild poinsettia (wild poinsettia; Rate 1120 g/ha): 70 | Plant response rating, Giant foxtail (giant foxtail; Rate 140 g/ha): 0 | Plant response rating, Giant foxtail (giant foxtail; Rate 280 g/ha): 40 | Plant response rating, Giant foxtail (giant foxtail; Rate 560 g/ha): 80 | Plant response rating, Giant foxtail (giant foxtail; Rate 1120 g/ha): 85 | Plant response rating Arrowleaf sida (arrowleaf sida; Rate 140 g/ha): 40 | Plant response rating Arrowleaf sida (arrowleaf sida; Rate 280 g/ha): 45 | Plant response rating Arrowleaf sida (arrowleaf sida; Rate 560 g/ha): 85 | Plant response rating Arrowleaf sida (arrowleaf sida; Rate 1120 g/ha): 90 | Plant response rating, Velvetleaf (velvetleaf; Rate 140 g/ha): 0 | Plant response rating, Velvetleaf (velvetleaf; Rate 280 g/ha): 40 | Plant response rating, Velvetleaf (velvetleaf; Rate 560 g/ha): 40 | Plant response rating, Velvetleaf (velvetleaf; Rate 1120 g/ha): 60

Source: patent US6737383B1, “Herbicidal oxadiazolidines” (priority 1999, dated 2004)
